Source: US11000033B2, “Ketone or oxime compound, and herbicide” (NISSAN CHEMICAL CORPORATION, priority 2014, dated 2021)

Columns and labels:
Assay type in all cases: in vivo
Galium spurium = test: Test Example 4: herbicidal effect by soil treatment (symbol Q)
Summary of the method: (§1)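 Seeds were sown in sterilized diluvial soil, covered with about 1.5 cm of soil, and the soil surface was sprayed with a water-diluted emulsion of the compound at a predetermined rate. Plants grew in a greenhouse at 25° C. to 30° C.; effects were scored visually 3 weeks after application.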

Chenopodium album [1] = test: Test Example 4: herbicidal effect by soil treatment (symbol O)
Summary of the method: as §1

Abutilon theophrasti = test: Test Example 5: herbicidal effect by foliage application, plastic box (symbol M); settings: 320 g/ha, 3 weeks after application
Summary of the method: (§2)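 Post-emergence spray; diluvial soil (sterilized), ~1.5 cm seed cover; greenhouse 25–30° C; 14-day-old plants; water-diluted emulsion at predetermined dose; visual score at 3 wk post-treatment.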

rice = test: Test Example 4: effect on crop by soil treatment (symbol b); settings: for b: directly sowed rice plant, effect on crop grade: application herbicide amount 320 g/ha; for b: directly sowed rice plant, effect grade on crop: 320 g/ha
Summary of the method: (§3)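 Sterilized diluvial soil, spot sowing, ~1.5 cm soil cover; greenhouse 25–30° C.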

rapeseed = test: Test Example 4: effect on crop by soil treatment (symbol g); settings: for g: rapeseed, effect on crop grade: application herbicide amount 320 g/ha; for g: rapeseed, effect grade on crop: 320 g/ha
Summary of the method: as §3

Cyperus difformis = test: Test Example 3: herbicidal effect by foliage application, Wagner pot (symbol E); settings: application herbicide amount 320 g/ha; for E herbicidal effect grade: Table 24
Summary of the method: (§4)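 Plants sown in submerged alluvial soil (water depth 0.1–0.5 cm) in a 25–30 °C greenhouse and grown 14 days. An emulsion of the compound diluted in water to a set herbicide amount was sprayed uniformly on foliage. Effect on each plant scored 3 weeks after application.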

wheat [2] = test: Test Example 4: effect on crop by soil treatment (symbol e); settings: for e: wheat, effect on crop grade: application herbicide amount 320 g/ha; for e: wheat, effect grade on crop: 320 g/ha
Summary of the method: as §3

Leptochloa chinensis = test: Test Example 3: herbicidal effect by foliage application, Wagner pot (symbol D); settings: application herbicide amount 320 g/ha; for D (Leptochloa chinensis) herbicidal effect grade: Table 24
Summary of the method: as §4

rice plant = test: Test Example 5: effect on crop by foliage application, plastic box (symbol b); settings: 320 g/ha, 3 weeks after application
Summary of the method: (§5)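 Crop and weed seeds sown in spots in sterilized diluvial soil in plastic boxes and covered with about 1.5 cm soil. Plants raised in a greenhouse at 25° C. to 30° C. for foliar application.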

Avena fatua = test: Test Example 5: herbicidal effect by foliage application, plastic box (symbol I); settings: 320 g/ha, 3 weeks after application
Summary of the method: as §2

Chenopodium album [3] = test: Test Example 5: herbicidal effect by foliage application, plastic box (symbol O); settings: 320 g/ha, 3 weeks after application
Summary of the method: as §2

Apera spica-venti = test: Test Example 5: herbicidal effect by foliage application, plastic box (symbol L); settings: 320 g/ha, 3 weeks after application
Summary of the method: as §2

Lolium multiflorum Lam. = test: Test Example 4: herbicidal effect by soil treatment (symbol K)
Summary of the method: as §1

[4] = system: Echinochloa oryzacola Vasing.; test: Test Example 1: herbicidal activity, application before weed generation in submerged conditions (symbol A); settings: application herbicide amount 320 g/ha
Summary of the method: (§6)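 Steps: alluvial soil flooded to 4 cm; weed seeds sown together; rice seedlings (2.5 leaf) transplanted; diluted emulsion applied to water surface the same day as sowing; plants grown at 25–30 °C in greenhouse; herbicidal effect rated on a 0–5 scale at 3 weeks.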

beet = test: Test Example 4: effect on crop by soil treatment (symbol f); settings: for f: beet, effect on crop grade: application herbicide amount 320 g/ha; for f: beet, effect grade on crop: 320 g/ha
Summary of the method: as §3

Stellaria media = test: Test Example 5: herbicidal effect by foliage application, plastic box (symbol P); settings: 320 g/ha, 3 weeks after application
Summary of the method: as §2

Monochoria vaginalis = test: Test Example 1: herbicidal activity, application before weed generation in submerged conditions (symbol C); settings: application herbicide amount 320 g/ha
Summary of the method: as §6

Amaranthus retroflexus = test: Test Example 4: herbicidal effect by soil treatment (symbol N)
Summary of the method: as §1

wheat [5] = test: Test Example 5: effect on crop by foliage application, plastic box (symbol e); settings: 320 g/ha, 3 weeks after application
Summary of the method: as §5

[6] = application herbicide amount 320 g/ha

SMILES | Q: Galium spurium, herbicidal effect grade (Galium spurium; [6]) | O: Chenopodium album, herbicidal effect grade (Chenopodium album [1]; [6]) | M: Abutilon theophrasti, herbicidal effect grade (Abutilon theophrasti) | b: directly sowed rice plant, effect on crop grade (rice) | g: rapeseed, effect on crop grade (rapeseed) | E herbicidal effect grade (Cyperus difformis) | e: wheat, effect on crop grade (wheat [2]) | D (Leptochloa chinensis) herbicidal effect grade (Leptochloa chinensis) | b: directly sowed rice plant, effect on crop grade (rice plant) | I: Avena fatua, herbicidal effect grade (Avena fatua) | O: Chenopodium album, herbicidal effect grade (Chenopodium album [3]) | L: Apera spica-venti, herbicidal effect grade (Apera spica-venti) | K: Lolium multiflorum Lam., herbicidal effect grade (Lolium multiflorum Lam.; [6]) | A (Echinochloa oryzacola Vasing.) herbicidal effect grade [4] | f: beet, effect on crop grade (beet) | P: Stellaria media, herbicidal effect grade (Stellaria media) | C (Monochoria vaginalis) herbicidal effect grade (Monochoria vaginalis) | N: Amaranthus retroflexus, herbicidal effect grade (Amaranthus retroflexus; [6]) | e: wheat, effect on crop grade (wheat [5]) | Q: Galium spurium, herbicidal effect grade (Galium spurium; 320 g/ha) | other results
CCC(CC1CC(O)=C(c2c(C)cc(-c3ccccc3)cc2OC)C1=O)=NOC (mixture of isomers) [13-004] | 0 (Herbicidal ratio of 5% or lower (almost no effect)) | 0 (Herbicidal ratio of 5% or lower (almost no effect)) | 1 (Herbicidal ratio of 5% or higher and lower than 20%) | 5 (Herbicidal ratio of 90% or more (almost completely withered)) | 4 (Herbicidal ratio of 70% or higher and lower than 90%) | 5 (Herbicidal ratio of 90% or more (almost completely withered)) | 5 (Herbicidal ratio of 90% or more (almost completely withered)) | 5 (Herbicidal ratio of 90% or more (almost completely withered)) | 5 (Herbicidal ratio of 90% or more (almost completely withered)) | 5 (Herbicidal ratio of 90% or more (almost completely withered)) | 4 (Herbicidal ratio of 70% or higher and lower than 90%) | 5 (Herbicidal ratio of 90% or more (almost completely withered)) | 5 (Herbicidal ratio of 90% or more (almost completely withered)) | 5 (Herbicidal ratio of 90% or more (almost completely withered)) | 0 (Herbicidal ratio of 5% or lower (almost no effect)) | 2 (Herbicidal ratio of 20% or higher and lower than 40%) | 5 (Herbicidal ratio of 90% or more (almost completely withered)) | 4 (Herbicidal ratio of 70% or higher and lower than 90%) | 5 (Herbicidal ratio of 90% or more (almost completely withered)) | – | –
COc1cc(Br)cc(C)c1C1=C(O)CC(CC(=O)C2CC2)C1=O (racemic) [14-001] | 0 (Herbicidal ratio of 5% or lower (almost no effect)) | 0 (Herbicidal ratio of 5% or lower (almost no effect)) | 4 (Herbicidal ratio of 70% or higher and lower than 90%) | 5 (Herbicidal ratio of 90% or more (almost completely withered)) | 0 (Herbicidal ratio of 5% or lower (almost no effect)) | 5 (Herbicidal ratio of 90% or more (almost completely withered)) | 0 (Herbicidal ratio of 5% or lower (almost no effect)) | 5 (Herbicidal ratio of 90% or more (almost completely withered)) | 5 (Herbicidal ratio of 90% or more (almost completely withered)) | 5 (Herbicidal ratio of 90% or more (almost completely withered)) | 0 (Herbicidal ratio of 5% or lower (almost no effect)) | 5 (Herbicidal ratio of 90% or more (almost completely withered)) | 5 (Herbicidal ratio of 90% or more (almost completely withered)) | 4 (Herbicidal ratio of 70% or higher and lower than 90%) | 0 (Herbicidal ratio of 5% or lower (almost no effect)) | 0 (Herbicidal ratio of 5% or lower (almost no effect)) | 3 (Herbicidal ratio of 40% or higher and lower than 70%) | 0 (Herbicidal ratio of 5% or lower (almost no effect)) | 4 (Herbicidal ratio of 70% or higher and lower than 90%) | – | –
CON=C(C)CC1CC(OS(=O)(=O)N(C)C)=C(c2c(C)cc(C)cc2C)C1=O (stereo not shown) [1-122] | – | – | – | – | – | – | – | – | – | – | – | – | – | – | – | – | – | – | – | 0 (Herbicidal ratio of 5% or lower (almost no effect)) | O: Chenopodium album, herbicidal effect grade (Chenopodium album [1]; 320 g/ha): 0 (Herbicidal ratio of 5% or lower (almost no effect)); M: Abutilon theophrasti, herbicidal effect (criteria 0-5) (Abutilon theophrasti): 4 (Herbicidal ratio of 70% or higher and lower than 90%); b: directly sowed rice plant, effect grade on crop (rice): 4 (Herbicidal ratio of 70% or higher and lower than 90%); g: rapeseed, effect grade on crop (rapeseed): 0 (Herbicidal ratio of 5% or lower (almost no effect)); herbicidal effect on E, grade 0-5 (Cyperus difformis): 5 (Herbicidal ratio of 90% or more (almost completely withered)); e: wheat, effect grade on crop (wheat [2]): 0 (Herbicidal ratio of 5% or lower (almost no effect)); herbicidal effect on D (Leptochloa chinensis), grade 0-5 (Leptochloa chinensis): 5 (Herbicidal ratio of 90% or more (almost completely withered)); b: directly sowed rice plant, effect on crop (criteria 0-5) (rice plant): 5 (Herbicidal ratio of 90% or more (almost completely withered)); I: Avena fatua, herbicidal effect (criteria 0-5) (Avena fatua): 5 (Herbicidal ratio of 90% or more (almost completely withered)); O: Chenopodium album, herbicidal effect (criteria 0-5) (Chenopodium album [3]): 0 (Herbicidal ratio of 5% or lower (almost no effect)); L: Apera spica-venti, herbicidal effect (criteria 0-5) (Apera spica-venti): 5 (Herbicidal ratio of 90% or more (almost completely withered)); K: Lolium multiflorum Lam., herbicidal effect grade (Lolium multiflorum Lam.; 320 g/ha): 5 (Herbicidal ratio of 90% or more (almost completely withered)); Herbicidal effect grade, A: Echinochloa oryzacola Vasing. [4]: 5 (Herbicidal ratio of 90% or more (almost completely withered)); f: beet, effect grade on crop (beet): 0 (Herbicidal ratio of 5% or lower (almost no effect)); P: Stellaria media, herbicidal effect (criteria 0-5) (Stellaria media): 1 (Herbicidal ratio of 5% or higher and lower than 20%); Herbicidal effect grade, C: Monochoria vaginalis (Monochoria vaginalis): 0 (Herbicidal ratio of 5% or lower (almost no effect)); N: Amaranthus retroflexus, herbicidal effect grade (Amaranthus retroflexus; 320 g/ha): 0 (Herbicidal ratio of 5% or lower (almost no effect)); e: wheat, effect on crop (criteria 0-5) (wheat [5]): 4 (Herbicidal ratio of 70% or higher and lower than 90%)
CC(CC1CC(O)=C(c2c(C)cc(C)cc2C)C1=O)=NOCc1cccc(C(F)(F)F)c1 (stereo not shown) [1-117] | – | – | – | – | – | – | – | – | – | – | – | – | – | – | – | – | – | – | – | 0 (Herbicidal ratio of 5% or lower (almost no effect)) | O: Chenopodium album, herbicidal effect grade (Chenopodium album [1]; 320 g/ha): 0 (Herbicidal ratio of 5% or lower (almost no effect)); M: Abutilon theophrasti, herbicidal effect (criteria 0-5) (Abutilon theophrasti): 1 (Herbicidal ratio of 5% or higher and lower than 20%); b: directly sowed rice plant, effect grade on crop (rice): 5 (Herbicidal ratio of 90% or more (almost completely withered)); g: rapeseed, effect grade on crop (rapeseed): 2 (Herbicidal ratio of 20% or higher and lower than 40%); herbicidal effect on E, grade 0-5 (Cyperus difformis): 5 (Herbicidal ratio of 90% or more (almost completely withered)); e: wheat, effect grade on crop (wheat [2]): 0 (Herbicidal ratio of 5% or lower (almost no effect)); herbicidal effect on D (Leptochloa chinensis), grade 0-5 (Leptochloa chinensis): 4 (Herbicidal ratio of 70% or higher and lower than 90%); b: directly sowed rice plant, effect on crop (criteria 0-5) (rice plant): 5 (Herbicidal ratio of 90% or more (almost completely withered)); I: Avena fatua, herbicidal effect (criteria 0-5) (Avena fatua): 5 (Herbicidal ratio of 90% or more (almost completely withered)); O: Chenopodium album, herbicidal effect (criteria 0-5) (Chenopodium album [3]): 0 (Herbicidal ratio of 5% or lower (almost no effect)); L: Apera spica-venti, herbicidal effect (criteria 0-5) (Apera spica-venti): 5 (Herbicidal ratio of 90% or more (almost completely withered)); K: Lolium multiflorum Lam., herbicidal effect grade (Lolium multiflorum Lam.; 320 g/ha): 4 (Herbicidal ratio of 70% or higher and lower than 90%); Herbicidal effect grade, A: Echinochloa oryzacola Vasing. [4]: 5 (Herbicidal ratio of 90% or more (almost completely withered)); f: beet, effect grade on crop (beet): 0 (Herbicidal ratio of 5% or lower (almost no effect)); P: Stellaria media, herbicidal effect (criteria 0-5) (Stellaria media): 3 (Herbicidal ratio of 40% or higher and lower than 70%); Herbicidal effect grade, C: Monochoria vaginalis (Monochoria vaginalis): 5 (Herbicidal ratio of 90% or more (almost completely withered)); N: Amaranthus retroflexus, herbicidal effect grade (Amaranthus retroflexus; 320 g/ha): 0 (Herbicidal ratio of 5% or lower (almost no effect)); e: wheat, effect on crop (criteria 0-5) (wheat [5]): 5 (Herbicidal ratio of 90% or more (almost completely withered))
